The source of these data is patent US20250155433A1, “FLUORESCENT SENSORS FOR DETECTION OF SIDEROPHORES AND OTHER MOLECULES PRODUCED BY BACTERIAL PATHOGENS” (Kansas State University Research Foundation, priority 2021, published 2025).

Where two headings read alike, the source gives them in different places.

One experiment has as its target KpnIroN (Klebsiella pneumoniae, UniProt A0ACD7U953, T234C). In words: Fluorescence quenching binding to KpnIroN-FM sensor. As to the method:
(§1) Fluorescence modifications. For modifications with maleimide fluorophores, we inoculated E. coli strains OKN3, OKN13, OKN359 or OKN1359, harboring plasmids that encoded a Cys mutant LGP, from frozen stocks into LB, grew them overnight and sub-cultured at 1% into iron-deficient MOPS minimal media, with shaking (200 rpm) at 37° C. for 10-12 h, until late exponential phase. After collecting the cells by centrifugation at 7500×g for 15 min, and washing with 50 mM NaHPO4, pH 6.7, we labeled the Cys-mutant LGP with 5 μM FM in 50 mM NaHPO4, pH 6.7 for 15 min at 37° C. FM. We terminated the labeling reactions with 100 μM β-mercaptoethanol. […] After electrophoresis, we first visualized the fluorescence labeling on a Typhoon 8600 Biomolecular Scanner (GE/Amersham), and then stained the gels with Coomassie blue R (153).
(§2) Fluorescence spectroscopic binding determinations. We observed fluorophore-labeled cells in an SLM AMINCO 8100 fluorescence spectrometer, upgraded with an OLIS operating system and software (OLIS SpectralWorks, OLIS Inc., Bogart, GA), to control its shutters, polarizers and data collection. We also utilized an OLIS Clarity fluorescence spectrometer for fluorescence assays. […] We performed each measurement in triplicate and calculated the mean value of F/F0 at each ligand concentration. […]

The target of the next experiment is T1, EcoFepB (Escherichia coli, UniProt P0AEL6, T297C).
T1 construct: adds a 6H-tag at either the N- or C-termini of the mature proteins; 6-His (N); made in house; host or cells: E. coli BL21 (pET28), IPTG-induced; purified on Talon Superflow
T1 sequence (P0AEL6 27-318 T297C): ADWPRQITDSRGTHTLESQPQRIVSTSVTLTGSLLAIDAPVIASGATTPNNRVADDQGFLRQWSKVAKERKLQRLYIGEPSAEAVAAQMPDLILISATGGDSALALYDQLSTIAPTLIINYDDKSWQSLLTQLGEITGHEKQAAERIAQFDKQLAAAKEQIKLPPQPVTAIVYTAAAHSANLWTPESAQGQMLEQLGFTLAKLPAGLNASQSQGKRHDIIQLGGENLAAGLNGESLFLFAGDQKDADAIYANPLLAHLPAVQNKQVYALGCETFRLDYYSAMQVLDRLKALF
In words: biochemical. Format: binding. From the text:
Cys Mutant protein expression and fluorescent labeling. The vector for LGP production, pITS23, carries wild-type EcofepA under control of its native, Fur-regulated promoter. For expression of each of the E. coli LGP (Fiu, FhuA, IutA, Cir, BtuB) we replaced EcofepA in pITS23 with the alternate LGP structural gene, with its own signal sequence, such that the iron-regulated EcofepA promoter-controlled biosynthesis. For LGP from of other species (KpnFepA, KpnIroN, KpnFyuA, AbaBauA, PaeFepA, PaeFpvA, CcrHutA), we replaced the sequence encoding mature EcoFepA with the sequence encoding the foreign mature LGP, downstream from the EcoFepA signal sequence, and regulated by the EcofepA promoter. […] We evaluated the expression and labeling of each of the cloned LGP by growing the appropriate E. coli host strain (OKN3, OKN359, OKN13 or OKN1359), harboring the plasmid constructs of interest, in iron-deficient MOPS medium to late log phase (A600 nm=2.5-3.5). We subsequently analyzed SDS-PAGE resolved samples of bacterial OM, or purified protein fractions, for fluorescence emissions at […] before staining with Coomassie blue R (FIGS. 7, 8, 9). In some cases, we used mouse monoclonal (α-EcoFepA) antibodies or rabbit polyclonal (α-FepB) antisera to determine the expression levels and stoichiometry of FM-labeling, which allowed quantification of expression. […]

Another experiment has as its target T2, EcoFepA (Escherichia coli, UniProt P05825, A720C).
T2 construct: expressed in transfected cells; host or cells: E. coli OKN3/OKN13/OKN359/OKN1359 carrying pITS23 (fepA under its own promoter)
The experiment in a line: biochemical. Format: binding. How it is done: (§3) Fluorescence modifications. For modifications with maleimide fluorophores, we inoculated E. coli strains OKN3, OKN13, OKN359 or OKN1359, harboring plasmids that encoded a Cys mutant LGP, from frozen stocks into LB, grew them overnight and sub-cultured at 1% into iron-deficient MOPS minimal media, with shaking (200 rpm) at 37° C. for 10-12 h, until late exponential phase. After collecting the cells by centrifugation at 7500×g for 15 min, and washing with 50 mM NaHPO4, pH 6.7, we labeled the Cys-mutant LGP with 5 μM FM in 50 mM NaHPO4, pH 6.7 for 15 min at 37° C. FM. We terminated the labeling reactions with 100 μM β-mercaptoethanol. After collecting the fluoresceinated cells by centrifugation at 7500×g for 15 min, and washing with 50 mM NaHPO4, pH 6.7, we re-suspended them in PBS plus 0.2% glucose. We either immediately used the labeled cells in spectroscopic experiments, or rested them on ice (up to 24 h), or added glycerol to 15% and stored them (indefinitely) as 1 mL aliquots at −70° C. In the latter case, after thawing the labeled cells we pelleted them by centrifugation in a microfuge, washed them once with and re-suspended them in PBS containing 0.2% glucose. Lastly, for evaluation of protein expression or the extent of FM-labeling we solubilized aliquots of the cell suspensions with sample buffer, and subjected them to SDS-PAGE. After electrophoresis, we first visualized the fluorescence labeling on a Typhoon 8600 Biomolecular Scanner (GE/Amersham), and then stained the gels with Coomassie blue R (153).
(§4) Fluorescence spectroscopic binding determinations. We observed fluorophore-labeled cells in an SLM AMINCO 8100 fluorescence spectrometer, upgraded with an OLIS operating system and software (OLIS SpectralWorks, OLIS Inc., Bogart, GA), to control its shutters, polarizers and data collection. We also utilized an OLIS Clarity fluorescence spectrometer for fluorescence assays. For binding determinations we deposited 2.5×10^7 labeled cells in a quartz cuvette (final volume, 2 mL) with stirring at 37° C., measured the initial fluorescence (F0), and then added increasing concentrations of an iron complex while monitoring the quenching of fluorescence emissions (F) at 520 nm. We performed each measurement in triplicate and calculated the mean value of F/F0 at each ligand concentration. We plotted 1−F/F0 vs [ligand] and analyzed the data by the 1-site binding model of Grafit 6.0.12 (Erithacus Ltd. West Sussex, UK), that fits data to a single site saturation curve, where the amount of ligand bound is plotted as a function of the amount free:
(§5) These plots yielded KD values for each of the receptor-ligand interactions, with associated standard errors.
(§6) Table 1 lists KD values from analysis of fluorescence quenching with ferric or apo (parenthetic values) siderophores or porphyrins. For each determination, we measured the extent of fluorescence quenching of an FLGP, when exposed to sequentially increasing concentrations of the listed metal complexes, as plotted in FIGS. 2-4. We performed each experiment 2 or 3 times. The tabulated KD values are from single, representative experiments, in which we collected each data point in triplicate, plotted F/F0 vs [ligand] for each quenching titration, and fitted the curves to a single site binding model using Grafit 6.012 (Erithacus Ltd, […], UK).

The target of a further experiment is KpnFepA1658 (Klebsiella pneumoniae, UniProt A6T631, A407C). The experiment in a line: Fluorescence quenching binding to KpnFepA1658-FM sensor. To be noted: read-out: Affinity (KD) of sensor KpnFepA 1658, apo siderophore; apo (parenthetic value); A382C. As to the method:
as §1, §2

For the next experiment, the target named is T3, PaeFepA (Pseudomonas aeruginosa, UniProt Q05098, S296C).
T3 construct: expressed in transfected cells; host or cells: E. coli OKN3/OKN13/OKN359/OKN1359 carrying a pITS23 derivative
In words: Fluorescence quenching binding to PaeFepA-FM sensor. How it is done:
as §1, §2

In a further experiment the target is KpnFepA4984 (Klebsiella pneumoniae, UniProt A0ACD7TVS5, A414C). In words: Fluorescence quenching binding to KpnFepA4984-FM sensor. The note with it: read-out: Affinity (KD) of sensor KpnFepA 4984, apo siderophore; apo (parenthetic value); A390C. As to the method: as §1, §2
Another experiment addresses T4, AbaPirA (Acinetobacter baumannii, UniProt D0C8V9).
T4 construct: fused on or other part: EcoFepA signal peptide in place of its own (cleaved on export); fluorescein maleimide on the engineered Cys
To be noted: read-out: Affinity (KD) of sensor AbaPirA; ferric complexes; Cys residue S328C, FM-labeled; NB = no binding.

For another experiment, the target named is AbaPiuA (Acinetobacter baumannii, UniProt D0CAH3, S724C). In words: Fluorescence quenching binding to AbaPiuA-FM sensor. As to the method:
as §3, with “In the latter case, after thawing the labeled cells we pelleted them by centrifugation in a microfuge, washed them once with and re-suspended them in PBS containing 0.2% glucose. Lastly, for evaluation of protein expression or the extent of FM-labeling we solubilized aliquots of the cell suspensions with sample buffer, and subjected them to SDS-PAGE.” left out
as §4, with “We plotted 1−F/F0 vs [ligand] and analyzed the data by the 1-site binding model of Grafit 6.0.12 (Erithacus Ltd. West Sussex, UK), that fits data to a single site saturation curve, where the amount of ligand bound is plotted as a function of the amount free:” left out
Table 1 lists KD values from analysis of fluorescence quenching with ferric or apo (parenthetic values) siderophores or porphyrins. […]

Another experiment addresses AbaBauA (Acinetobacter baumannii, UniProt Q76HJ9, S407C). The experiment in a line: Fluorescence quenching binding to AbaBauA-FM sensor. As to the method:
as §1, §2

In another experiment the target is T5, EcoFiu (Escherichia coli, UniProt P75780, A694C).
T5 construct: expressed in transfected cells; host or cells: E. coli OKN3/OKN13/OKN359/OKN1359 carrying a pITS23 derivative
T5 sequence (P75780 32-760 A694C): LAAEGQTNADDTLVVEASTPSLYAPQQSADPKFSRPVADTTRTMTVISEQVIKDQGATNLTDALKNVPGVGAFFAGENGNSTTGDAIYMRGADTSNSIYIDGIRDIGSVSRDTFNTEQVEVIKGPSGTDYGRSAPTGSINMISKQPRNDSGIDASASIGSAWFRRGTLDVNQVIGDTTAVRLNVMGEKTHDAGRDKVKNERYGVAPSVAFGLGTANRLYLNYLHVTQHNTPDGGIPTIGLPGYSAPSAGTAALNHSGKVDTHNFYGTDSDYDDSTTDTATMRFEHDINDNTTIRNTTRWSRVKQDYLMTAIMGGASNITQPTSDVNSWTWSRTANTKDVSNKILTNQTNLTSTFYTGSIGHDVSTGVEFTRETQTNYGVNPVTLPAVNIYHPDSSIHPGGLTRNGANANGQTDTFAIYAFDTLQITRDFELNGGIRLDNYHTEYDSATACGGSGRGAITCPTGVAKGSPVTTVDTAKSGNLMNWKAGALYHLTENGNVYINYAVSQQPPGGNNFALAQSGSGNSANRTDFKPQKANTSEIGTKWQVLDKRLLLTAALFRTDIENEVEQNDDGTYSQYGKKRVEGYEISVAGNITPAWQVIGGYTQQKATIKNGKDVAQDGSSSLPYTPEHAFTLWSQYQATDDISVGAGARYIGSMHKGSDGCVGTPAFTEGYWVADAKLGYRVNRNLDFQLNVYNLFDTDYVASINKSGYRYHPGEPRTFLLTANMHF
In words: biochemical. Format: binding. As to the method:
as §3, §4, §5, §6

A further experiment deals with T6, EcoCir (Escherichia coli, UniProt P17315, G512C).
T6 construct: expressed in transfected cells; host or cells: E. coli OKN3/OKN13/OKN359/OKN1359 carrying a pITS23 derivative
T6 sequence (P17315 26-663 G512C): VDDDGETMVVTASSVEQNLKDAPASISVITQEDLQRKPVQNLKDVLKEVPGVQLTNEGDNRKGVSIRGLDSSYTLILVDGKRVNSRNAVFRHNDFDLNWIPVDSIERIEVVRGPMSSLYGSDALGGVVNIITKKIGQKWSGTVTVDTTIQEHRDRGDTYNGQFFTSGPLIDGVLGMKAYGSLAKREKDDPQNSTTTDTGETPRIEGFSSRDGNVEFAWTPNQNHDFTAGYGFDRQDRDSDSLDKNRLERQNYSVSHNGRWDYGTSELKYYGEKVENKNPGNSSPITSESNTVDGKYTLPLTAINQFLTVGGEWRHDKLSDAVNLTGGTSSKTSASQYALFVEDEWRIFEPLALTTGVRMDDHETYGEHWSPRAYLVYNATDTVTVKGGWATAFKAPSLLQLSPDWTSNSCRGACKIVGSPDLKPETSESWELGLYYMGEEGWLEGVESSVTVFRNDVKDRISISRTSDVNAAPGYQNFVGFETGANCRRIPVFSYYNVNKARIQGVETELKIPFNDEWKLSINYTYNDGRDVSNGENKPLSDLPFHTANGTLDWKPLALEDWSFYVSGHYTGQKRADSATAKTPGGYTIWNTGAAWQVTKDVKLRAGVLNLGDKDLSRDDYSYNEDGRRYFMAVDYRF
In words: biochemical. Format: binding. As to the method:
as §3, §4, §5, §6

The target in experiment [1] is T7, HsaSCN (human siderocalin) (Homo sapiens, UniProt P80188, Q148C).
T7 construct: adds a 6H-tag at either the N- or C-termini of the mature proteins; 6-His (N); made in house; host or cells: E. coli BL21 (pET28), IPTG-induced; purified on Talon Superflow
T7 sequence (P80188 21-198 Q148C): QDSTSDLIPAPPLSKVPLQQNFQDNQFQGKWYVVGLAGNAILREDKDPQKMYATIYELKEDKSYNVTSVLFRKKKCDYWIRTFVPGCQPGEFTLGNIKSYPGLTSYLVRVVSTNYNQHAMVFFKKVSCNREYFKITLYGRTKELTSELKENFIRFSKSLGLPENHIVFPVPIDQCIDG
The experiment in a line: Fluorescence quenching binding to purified HsaSCN-FM sensor. To be noted: ferric complexes and porphyrins; Cys residue Q128C, FM-labeled purified protein; NB = no binding; read-out: Affinity (KD) of sensor HsaSCN.

A further experiment deals with CcrHutA. The experiment in a line: Fluorescence quenching binding to CcrHutA-FM sensor. Also noted: species or system Caulobacter crescentus. The note with it: porphyrins; Cys residue A635C, FM-labeled; NB = no binding; read-out: Affinity (KD) of sensor CcrHutA. How it is done:
as §1, §2

T2 sequence (P05825 23-746 A720C): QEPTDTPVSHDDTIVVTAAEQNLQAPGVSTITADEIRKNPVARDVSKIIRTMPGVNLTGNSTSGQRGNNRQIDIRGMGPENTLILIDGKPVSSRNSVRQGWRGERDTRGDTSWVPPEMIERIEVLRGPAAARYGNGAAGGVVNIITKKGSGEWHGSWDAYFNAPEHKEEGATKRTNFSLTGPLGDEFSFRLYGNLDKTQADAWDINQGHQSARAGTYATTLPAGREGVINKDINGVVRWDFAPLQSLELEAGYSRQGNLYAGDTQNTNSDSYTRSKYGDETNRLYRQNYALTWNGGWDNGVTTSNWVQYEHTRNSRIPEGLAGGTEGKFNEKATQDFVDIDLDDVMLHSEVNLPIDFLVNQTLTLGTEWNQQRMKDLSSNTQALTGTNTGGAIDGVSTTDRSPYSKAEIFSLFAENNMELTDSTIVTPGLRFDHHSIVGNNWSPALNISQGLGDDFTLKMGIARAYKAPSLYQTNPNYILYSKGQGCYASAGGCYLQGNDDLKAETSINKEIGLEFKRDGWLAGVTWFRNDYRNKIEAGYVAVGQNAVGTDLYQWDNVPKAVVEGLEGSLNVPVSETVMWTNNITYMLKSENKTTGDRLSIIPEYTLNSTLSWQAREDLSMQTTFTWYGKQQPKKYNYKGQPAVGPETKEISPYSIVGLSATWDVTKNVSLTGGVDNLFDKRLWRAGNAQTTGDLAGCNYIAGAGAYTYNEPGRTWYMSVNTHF
Protocol for AbaPirA: For modifications with maleimide fluorophores, we inoculated E. coli strains OKN3, OKN13, OKN359 or OKN1359, harboring plasmids that encoded a Cys mutant LGP, from frozen stocks into LB, grew them overnight and sub-cultured at 1% into iron-deficient MOPS minimal media, with shaking (200 rpm) at 37° C. for 10-12 h, until late exponential phase. After collecting the cells by centrifugation at 7500×g for 15 min, and washing with 50 mM NaHPO4, pH 6.7, we labeled the Cys-mutant LGP with 5 μM FM in 50 mM NaHPO4, pH 6.7 for 15 min at 37° C. […] We terminated the labeling reactions with 100 μM β-mercaptoethanol. […]
We also utilized an OLIS Clarity fluorescence spectrometer for fluorescence assays. […] We performed each measurement in triplicate and calculated the mean value of F/F0 at each ligand concentration. We plotted 1−F/F0 vs [ligand] and analyzed the data by the 1-site binding model of Grafit 6.0.12 (Erithacus Ltd. West Sussex, UK), that fits data to a single site saturation curve, where the amount of ligand bound is plotted as a function of the amount free:
For each determination, we measured the extent of fluorescence quenching of an FLGP, when exposed to sequentially increasing concentrations of the listed metal complexes, as plotted in FIGS. 2-4. […]

Take `O=C(N[C@H]1COC(=O)[C@@H](NC(=O)c2cccc(O)c2O)COC(=O)[C@@H](NC(=O)c2cccc(O)c2O)COC1=O)c1cccc(O)c1O` [Ent, enterobactin]: the equilibrium dissociation constant (Kd) on KpnIroN (read-out: Affinity (KD) of sensor KpnIroN, apo siderophore, apo (parenthetic value), T210C) is 40 nM; on EcoFepB it was 6000 nM; on EcoFepA (Affinity (KD) of sensor EcoFepA, apo siderophore, apo (parenthetic value), A698C), 30 nM; on EcoFepA (KD, EcoFepA / EcoFepA-FM) it was 43 nM; at KpnFepA1658, 70 nM; at PaeFepA, 1700 nM. Also, the Kd at KpnFepA4984 came out at 3300 nM.
Turning to `CC(C)(O/N=C(\C(=O)N[C@@H]1C(=O)N2C(C(=O)[O-])=C(C[N+]3(CCNC(=O)c4ccc([O-])c([O-])c4Cl)CCCC3)CS[C@H]12)c1csc(N)n1)C(=O)[O-].[Fe+3]` [FeFDC], the dissociation constant Kd on AbaPirA worked out at 4800 nM; at AbaPiuA, 57000 nM; on KpnIroN (read-out: Affinity (KD) of sensor KpnIroN, ferric complexes, Cys residue T210C, FM-labeled, NB = no binding), 580 nM; on AbaBauA, 181000 nM; on EcoFiu, 540 nM; on EcoCir, 60 nM.
On to hemin [Hn], for which the Kd in [1] turned out to be 340 nM; at CcrHutA, 150 nM.

In general, Kd refers to the equilibrium constant for the complex coming apart.
